The text below walks through data of patent publication US20070072939A1, “Cannabinoid active pharmaceutical ingredient for improved dosage forms” (Euro-Celtique, S.A., priority 2005, published 2007).

The conditions of data set [1]: delivery by inhalation (e.g., by smoking); cited from earlier work.
The conditions of data set [2]: purified resinous material, background statement; cited from earlier work.
For data set [3] the following is noted: sufficiently purified trans-(+)-Δ^9-THC; cited from earlier work.
Data set [4] can be described thus: stability of the substance to air, light and temperature (appearance).

Where only a bound is given, the exact number is not on record here.

Turning to `CCCCCc1cc(O)c2c(c1)OC(C)(C)[C@@H]1CCC(C)=C[C@@H]21` [trans-(−)-Δ^9-THC, (−)-6a, 10a-trans-Δ^9-tetrahydrocannabinol], the “onset of pharmacological activity” value in data set [1] is given as not above 10 minutes. In addition, the “chemical stability to light, oxygen and heat” value in data set [2] was “chemically unstable to light, oxygen, and heat”.

On to `CCCCCc1cc(O)c2c(c1)OC(C)(C)[C@H]1CCC(C)=C[C@H]21` [trans-(+)-Δ^9-THC, trans-(+)-Δ^9-tetrahydrocannabinol], for which the “activity relative to the trans-(−)-Δ^9-THC enantiomer” value in data set [3] is on record as approximately 1%.

On to “trans-(±)-Δ^9-tetrahydrocannabinol [crystalline trans-(±)-Δ^9-THC]”, for which the stability result in data set [4] (25° C. in the presence of air and laboratory lighting, Example 12 material) is “stable”. Also, in data set [4] (25° C., Example 10 material, expected), the “retention of white appearance” value is “retain that white appearance for at least three days”. Besides, the appearance after storage result in data set [4] (held for three days at room temperature in the presence of air and laboratory lighting) is “remained white”.
